In patent US20080118573A1, “Use of Heavy Metals in the Treatment of Biofilms” (priority 2004, published 2008):
Values after ≈ are worked out from the molar mass of the structure shown. Values joined by “and” are separate entries in the source; they are usually repeats but may differ in a detail not shown here. Equal entries are not always repeated. Where two headings read alike, the source gives them in different places. Marks after values point to notes of the source that are not given here.

Assays:
P. aeruginosa biofilms = settings: after 100 h of exposure; cited from earlier work
[1] = system: Pseudomonas aeruginosa biofilms; test: Metal and antibiotic combination assay; assay type: cell-based; settings: for MBC / MIC / MBEC: median of 4 replicates
Method: Cells were grown to a mean density of 6.0×10^6 cfu/peg in LB+B1 media.
• 1. […] All data are median values based on 4 replicates.

[2] = system: Pseudomonas aeruginosa ATCC 27853 planktonic and biofilm cultures; assay type: cell-based; settings: for Fold Tolerance (MBEC:MBC100) / MBEC / MBC100: MSVP; for MBEC: biofilm; for MIC: minimal media (MSVP), did not change with exposure time, mean ± SD of 28 trials; for MBC100: planktonic
[3] = system: Pseudomonas aeruginosa ATCC 27853 planktonic and biofilm cultures; assay type: cell-based; settings: for Fold Tolerance (MBEC:MBC100) / MBEC / MBC100: LB+B1; for MBEC: biofilm; for MBC100: planktonic; for MIC: rich media (LB+B1), 4 replicates
[4] = system: Pseudomonas aeruginosa ATCC 27853 cell populations; assay type: cell-based; settings: for eradication of the biofilm cultures with extended exposure times: 27 hours exposure
[5] = system: Staphylococcus aureus ATCC 29213 planktonic and biofilm bacteria; assay type: cell-based; settings: LB+B1, 24 h exposure; for MIC: S. aureus ATCC 29213; for MBEC: S. aureus ATCC 29213 biofilm; for MBC: S. aureus ATCC 29213 planktonic
[6] = system: Pseudomonas aeruginosa ATCC 27853 planktonic and biofilm bacteria; assay type: cell-based; settings: LB+B1, 24 h exposure; for MIC: P. aeruginosa ATCC 27853; for MBEC: P. aeruginosa ATCC 27853 biofilm; for MBC: P. aeruginosa ATCC 27853 planktonic
[7] = system: Pseudomonas aeruginosa 15442; test: Synergy matrix assay of polycide versus metals; assay type: cell-based
[8] = system: Escherichia coli JM109 planktonic and biofilm bacteria; assay type: cell-based; settings: LB+B1, 24 h exposure; for MIC: E. coli JM109; for MBEC: E. coli JM109 biofilm; for MBC: E. coli JM109 planktonic
[9] = system: Pseudomonas aeruginosa ATCC 27853 planktonic and biofilm bacteria; test: MBEC-HTP antibiotic susceptibility, P. aeruginosa; assay type: cell-based; settings: CA-MHB, 24 h exposure
Method: (§1) Luria-Bertani medium was chosen for two reasons: 1) its established use in studies of metal resistance, and 2) because of the use of rich media in NCCLS testing protocols for antimicrobial resistance. Antibiotic resistance assays were performed using cation-adjusted Mueller-Hinton broth (CA-MHB, BDH Inc.) and subcultures, MBC and MBEC bacterial counts were performed using trypticase soy agar (TSA, Difco).
(§2) The present study used a novel high throughput method for screening biofilm susceptibility to metal cations and oxyanions: the MBEC device (MBEC Bioproducts Inc., Edmonton, Alberta, Canada, http://www.mbec.ca). The MBEC high throughput (MBEC-HTP) assay system consists of a shallow trough into which a plastic lid with 96 pegs fits. This peg lid also fits over a standard 96-well microtitre plate which can subsequently be used to setup serial dilutions of antimicrobial compounds. The bottom half of the MBEC device is a trough that has shallow channels that direct flow of an inoculated suspension over the pegs on the lid.
(§3) The inoculum was standardized to a 1.0 McFarland standard and verified by viable counts. The 1.0 McFarland standard inoculum was diluted 30-fold with growth media, which served as the growth suspension to inoculate the MBECJ device.
(§4) P. aeruginosa was incubated for 9 h, S. aureus for 24 h and E. coli for 24 h to generate approximately equivalent biofilms of 6.0×10^6 cfu/peg. Following the incubation period, growth of biofilm and planktonic cultures in the MBECJ device were discerned and verified by viable cell counts.
(§5) Chloramphenicol (Sigma) was prepared in 50% ethanol and treated identically to the other antibiotics. 10% ethanol was added to the growth controls for chloramphenicol assays. […] Starting with the working solutions, serial two-fold dilutions were made in the wells of a 96-well plate (the challenge plate), leaving the first well of each row as a sterility control and the second as a growth control (i.e. no antibiotic).

[10] = system: Escherichia coli JM109 planktonic and biofilm bacteria; test: MBEC-HTP antibiotic susceptibility, E. coli; assay type: cell-based; settings: CA-MHB, 24 h exposure
Method: as §1, §2, §3, §4, §5

[11] = antibiotic or heavy metal alone, LB+B1

O=C(O)c1cn(C2CC2)c2cc(N3CCNCC3)c(F)cc2c1=O [Ciprofloxacin]
log10 reduction in viable cell counts of biofilms (P. aeruginosa biofilms): < 1.5 log10 | MBEC in the presence of Cu^2+, times less than the MBEC for the antibiotic alone ([1]; 200 μg/ml Cu^2+): at least 16 times | MBC ([1]; Pseudomonas aeruginosa, antibiotic in combination with 200 μg/ml Cu^2+, read-out: MBC): 8 µg/mL | MIC ([1]; Pseudomonas aeruginosa, antibiotic in combination with 200 μg/ml Cu^2+, read-out: MIC): 4 µg/mL | MBC ([1]; Pseudomonas aeruginosa, antibiotic in combination with 500 μg/ml Zn^2+, read-out: MBC): 32 µg/mL | MIC ([1]; Pseudomonas aeruginosa, antibiotic in combination with 500 μg/ml Zn^2+, read-out: MIC): 0.25 to 1 µg/mL | MBC ([1]; Pseudomonas aeruginosa, antibiotic or heavy metal alone, LB+B1, read-out: MBC): 8 µg/mL | MBEC ([1]; antibiotic in combination with 200 μg/ml Cu^2+): 16** μg/ml | MBEC ([1]; antibiotic in combination with 500 μg/ml Zn^2+): >64 µg/mL

[Cl-].[Cl-].[Co+2] [Co^2+, cobalt (II) chloride]
Fold Tolerance (MBEC:MBC100) ([2]; exposure time 2 to 6 h): 2.0 | Fold Tolerance (MBEC:MBC100) ([2]; exposure time 2 h): at least 2 | Fold Tolerance (MBEC:MBC100) ([2]; exposure time 8 h): 1.3 | Fold Tolerance (MBEC:MBC100) ([2]; exposure time 10 h): 1.2 | Fold Tolerance (MBEC:MBC100) ([2]; exposure time 27 h): 1.0 | MBEC ([2]; exposure time 2 to 6 h): ≧278 mM | MBEC ([2]; exposure time 8 h): 139 ± 0 mM | MBEC ([2]; exposure time 10 h): 209 ± 80 mM | MBEC ([2]; exposure time 27 h): 116 ± 36 mM | MIC [2]: 2.0 ± 0.8 mM | MBC100 ([2]; exposure time 2 to 6 h): 139 ± 0 mM | MBC100 ([2]; exposure time 8 h): 104 ± 40 mM | MBC100 ([2]; exposure time 10 h): 174 ± 70 mM | MBC100 ([2]; exposure time 27 h): 114 ± 44 mM | Fold Tolerance (MBEC:MBC100) ([3]; exposure time 2 h): 2.7 | Fold Tolerance (MBEC:MBC100) ([3]; exposure time 27 h): 2.0 | MBEC ([3]; exposure time 2 h): ≧280 mM | MBEC ([3]; exposure time 27 h): ≧280 mM | MBC100 ([3]; exposure time 2 h): 104 ± 40 mM | MBC100 ([3]; exposure time 27 h): 140 ± 0 mM | MIC [3]: 7.6 ± 2.2 mM | eradication of the biofilm cultures with extended exposure times [4]: complete eradication

O.O.O.O.O.O=S(=O)([O-])[O-].[Cu+2] [Cu^2+, cupric sulphate]
Fold Tolerance (MBEC:MBC100) ([2]; exposure time 8 to 10 h): 2.0 | Fold Tolerance (MBEC:MBC100) ([2]; exposure time 4 h): 2.0 | Fold Tolerance (MBEC:MBC100) ([2]; exposure time 6 h): 1.7 | Fold Tolerance (MBEC:MBC100) ([2]; exposure time 27 h): 1.1 | MBEC ([2]; exposure time 8 to 10 h): 32 ± 0 mM | MBEC ([2]; exposure time 2 h): ≧258 mM | MBEC ([2]; exposure time 4 h): 64 ± 45 mM | MBEC ([2]; exposure time 6 h): 36 ± 20 mM | MBEC ([2]; exposure time 27 h): 21 ± 11 mM | MIC [2]: 3.8 ± 1.9 mM | MBC100 ([2]; exposure time 8 to 10 h): 16 ± 0 mM | MBC100 ([2]; exposure time 2 h): 20 ± 8 mM | MBC100 ([2]; exposure time 4 h): 32 ± 0 mM | MBC100 ([2]; exposure time 6 h): 21 ± 14 mM | MBC100 ([2]; exposure time 27 h): 19 ± 11 mM | Fold Tolerance (MBEC:MBC100) ([3]; exposure time 2 h): 4.5 | Fold Tolerance (MBEC:MBC100) ([3]; exposure time 27 h): 1.0 | MBEC ([3]; exposure time 2 h): 72 ± 40 mM | MBEC ([3]; exposure time 27 h): 16 ± 0 mM | MBC100 ([3]; exposure time 2 h): 16 ± 0 mM | MBC100 ([3]; exposure time 27 h): 16 ± 0 mM | MIC [3]: 12 ± 5 mM | MIC [5]: 2.0 ± 0 mM | MBEC [5]: 2.0 ± 0 mM | MBC [5]: 2.0 ± 0 mM | eradication of the biofilm cultures with extended exposure times [4]: complete eradication | MIC [6]: 12 ± 5 mM | MBEC [6]: 14 ± 4.0 mM | MBC [6]: 14 ± 4.0 mM | effect on the efficacy of the polycide ([7]; adding as little as 16 micrograms per ml of the metal): quadruple | MIC [8]: 4.5 ± 1.4 mM | MBEC [8]: 13 ± 4 mM | MBC [8]: 15 ± 3 mM | MBC [1, 11]: 1024 µg/mL | MBEC [1, 11]: 1024 µg/mL | MIC [1, 11]: 512 to 1024 µg/mL

NC[C@H]1O[C@H](O[C@H]2[C@H](O)[C@@H](O[C@H]3O[C@H](CO)[C@@H](O)[C@H](N)[C@H]3O)[C@H](N)C[C@@H]2N)[C@H](N)C[C@@H]1O [Tobramycin]
MBEC ([9]; P. aeruginosa ATCC 27853 biofilm): 112 ± 32 µg/mL | MIC ([9]; Pseudomonas aeruginosa, ATCC27853, P. aeruginosa ATCC 27853, read-out: MIC): 14 ± 4 µg/mL (≈ 29.9 µM) | MBC ([9]; Pseudomonas aeruginosa, ATCC27853, P. aeruginosa ATCC 27853 planktonic, read-out: MBC): 28 ± 8 µg/mL (≈ 59.9 µM) | MBEC ([10]; E. coli JM109 biofilm): 16 ± 0 µg/mL | MIC ([10]; Escherichia coli, E. coli JM109, read-out: MIC): 4 µg/mL (≈ 8.56 µM) | MBC ([10]; Escherichia coli, E. coli JM109 planktonic, read-out: MBC): 8 µg/mL (≈ 17.1 µM) | log10 reduction in viable cell counts of biofilms (P. aeruginosa biofilms): less than 0.5 log10

O=S(=O)([O-])[O-].[Zn+2] [Zn^2+, zinc sulphate]
Fold Tolerance (MBEC:MBC100) ([2]; exposure time 10 h): 2.3 | Fold Tolerance (MBEC:MBC100) ([2]; exposure time 27 h): 1.0 | MBEC ([2]; exposure time 2 to 8 h): >125 mM | MBEC ([2]; exposure time 10 h): ≧256 mM | MBEC ([2]; exposure time 27 h): 102 ± 47 mM | MIC [2]: 9.5 mM and 9.5 ± 3.3 mM | MBC100 ([2]; exposure time 2 to 8 h): >125 mM | MBC100 ([2]; exposure time 10 h): 109 ± 31 mM | MBC100 ([2]; exposure time 27 h): 102 ± 47 mM | MBEC ([3]; exposure time 2 or 27 h): >125 mM | MBC100 ([3]; exposure time 2 or 27 h): >125 mM | MIC [3]: 78 ± 31 mM | MIC [5]: 2.0 ± 0 mM | MBEC [5]: >125 mM | MBC [5]: >125 mM | biofilm killed ([4]; 2 h exposure, FIG. 2 Panel A): 90-99% | concentration tolerated by the surviving population ([4]; less than 0.1% survival of biofilm and planktonic cell populations): > 125 mM | MIC [6]: 78 ± 31 mM | MBEC [6]: >125 mM | MBC [6]: >125 mM | synergistic effect on polycide activity [7]: did not appear to have any synergistic effect | MIC [8]: 2.2 ± 0.7 mM | MBEC [8]: 31 ± 0 mM | MBC [8]: 31 ± 0 mM | MBC [1, 11]: >8192 µg/mL | MBEC [1, 11]: >8192 µg/mL | MIC [1, 11]: 4096 µg/mL

lead nitrate [Pb^2+]
Fold Tolerance (MBEC:MBC100) ([2]; exposure time 2 to 4 h): 4.0 | Fold Tolerance (MBEC:MBC100) ([2]; exposure time 6 h): 3.0 | Fold Tolerance (MBEC:MBC100) ([2]; exposure time 8 h): 4.9 | Fold Tolerance (MBEC:MBC100) ([2]; exposure time 10 h): 3.0 | Fold Tolerance (MBEC:MBC100) ([2]; exposure time 27 h): 1.6 | MBEC ([2]; exposure time 2 to 4 h): ≧79 mM | MBEC ([2]; exposure time 6 h): ≧79 mM | MBEC ([2]; exposure time 8 h): 59 ± 23 mM | MBEC ([2]; exposure time 10 h): 59 ± 23 mM | MBEC ([2]; exposure time 27 h): 26 ± 15 mM | MIC [2]: 1.2 ± 0 mM | MBC100 ([2]; exposure time 2 to 4 h): 20 ± 0 mM | MBC100 ([2]; exposure time 6 h): 30 ± 11 mM | MBC100 ([2]; exposure time 8 h): 12 ± 5 mM | MBC100 ([2]; exposure time 10 h): 20 ± 0 mM | MBC100 ([2]; exposure time 27 h): 16 ± 6 mM | Fold Tolerance (MBEC:MBC100) ([3]; exposure time 27 h): 0.7 | MBEC ([3]; exposure time 2 h): >40 mM | MBEC ([3]; exposure time 27 h): 59 ± 23 mM | MBC100 ([3]; exposure time 2 h): >40 mM | MIC [3]: 12 ± 5 mM | eradication of the biofilm cultures with extended exposure times [4]: complete eradication
